Results reported in publication PMC8765781, “A platform of assays for the discovery of anti-Zika small-molecules with activity in a 3D-bioprinted outer-blood-retina model” (PLoS ONE, 2022).
Read-outs that look alike come from different tables or passages of the source. *1 amine or outer side, *2 acyl side, *3 side chain or, on linkers, in order; H or OH if unused. Where a SMILES comes first, the peptide text is derived from it. [ ]: non-standard residue; d: D form. The star is where a group is joined. ξ: configuration not given here. X2 = CCC(C)(N*)C(=O)C1CC[C@@H](C(=O)N[CH]Cc2ccccc2)N1; X1 = O=C([C@@H]1CC(O)CN1[*:1])[*:2]; aIle = CC[C@@H](C)[C@H](N)C(=O)O; Thr(3ξ) = CC(O)[C@H](N)C(=O)O; ξIva = CCC(C)(N)C(=O)O; Aib = CC(C)(N)C(=O)O

Key:
[1] = test system: DENV (Dengue virus type 2, strain New Guinea C)
in vitro [2] = details: human
in vitro [3] = details: African green monkey
[4] = test system: wild-type ZIKV (Ugandan MR766 strain) in Vero cells; assay: ZIKV cytopathic effect (CPE) inhibition qHTS assay, CellTiter-Glo readout; type: cell-based, Zika virus; details: for IC50: read-out: ZIKV-infection (CPE, ZIKV Antiviral Assays), IC50
[5] = test system: ZIKV-RLuc (Cambodian strain FSS13025); assay: microbe, parasite or virus in culture; type: cell-based, Zika virus; details: for IC50: read-out: Rluc-ZIKV (ZIKV Antiviral Assays), IC50
[6] = test system: caspase-3 activity induced by ZIKV in Vero cells; assay: cells; type: cell-based; details: read-out: Caspase 3 (ZIKV Antiviral Assays), IC50
[7] = test system: ZIKV-mCherry (Cambodian strain FSS13025); assay: microbe, parasite or virus in culture; type: cell-based, Zika virus
[8] = test system: mCherry-ZIKV in human neuronal progenitor cells; assay: microbe, parasite or virus in culture; type: cell-based, Zika virus
[9] = Zika virus, Vero, read-out: Log AC50 (M) (converted)
[10] = Zika virus, Vero, from Hill fit of the response curve, 50% of maximum activity response, 194 cherry-picked compounds, protocol name not given, read-out: AC50
[11] = Zika virus, Vero, potency in log units (Molar) from Hill fit of the response curve, 194 cherry-picked compounds, protocol name not given, read-out: Log AC50 (converted)
[12] = Zika virus, Vero cells, wild-type ZIKV MOI 1, 48 hr, unit inferred
[13] = difference between neutral response and maximum compound response
[14] = Zika virus, ZIKV-infected Vero cells, 48 hr, unit inferred

Row | SMILES | ZIKV active Yes/No (ZIKV) | WHV active Yes/No (WNV (Kern515/WN02)) | DENV active Yes/No [1] | YFV active Yes/No (YFV (YFV 17D)) | CC50 (in vitro [2]) [µM] | Efficacy [4] | AC50 ([4]; Zika virus, Vero) [M] | IC50 ([4]; Zika virus, Vero, 48 h) [µM] | AC50 [4, 9] [M] | IC50 ([5]; Zika virus, Vero, 48 h) [µM] | IC50 ([6]; Zika virus, Vero, 48 h) [µM] | CC-v2 (curve class of the dose response curve) [7] | Efficacy (difference between neutral response and maximum compound response) [7] | Max Resp (difference between neutral response and response at highest compound concentration) [7] | AC50 ([7]; Zika virus, Vero) [M] | AC50 [7, 9] [M] | other results
1 | CCN(CC)CCCC(C)Nc1ccnc2cc(Cl)ccc12 (stereo not shown) [NCGC00015256, chloroquine, reference compound] | No | No | No | No |  |  |  |  |  |  |  |  |  |  |  |  | SI value YFV (CC50/EC50) (YFV (YFV 17D)): 1.2
2 | O=C(O)Cc1cc(I)c(Oc2ccc(O)c(I)c2)c(I)c1 [NCGC00016227-08] |  |  |  |  | > 30 | -29.653 | 2.91e-05 | 29.1 | 2.91e-05 | 23.3 | > 48 | -1.3 | -57.778 | -100.305 | 1.5e-05 | 1.5e-05 | CC50 at 48 h (in vitro [3]): > 50 µM
3 | CS[C@H]1SC[C@@H]2C(=O)N(C)[C@H](C(C)C)C(=O)OC[C@H](NC(=O)c3cnc4ccccc4n3)C(=O)N[C@H](C)C(=O)N(C)[C@H]1C(=O)N(C)[C@H](C(C)C)C(=O)OC[C@H](NC(=O)c1cnc3ccccc3n1)C(=O)N[C@H](C)C(=O)N2C [NCGC00163548-03] | No | No | No | No |  |  |  |  |  |  |  | -1.1 | -108.47 | -100.29 | 2.99e-09 | 2.99e-09 | Antiviral activity in human NPC [8]: moderate antiviral activity
4 | Cc1ccc2c(c1)Cc1c(C(=O)NN3CCCCC3)nn(-c3ccc(Cl)cc3Cl)c1-2 [NCGC00167846-01] | Yes | No | Yes | No |  |  |  |  |  |  |  | -1.3 | -70.543 | -100.29 | 6.7e-07 | 6.7e-07 | Activity against ZIKV (ZIKV): active against both DENV and ZIKV; SI value ZIKV (CC50/EC50) (ZIKV): 31; CC-v2 (curve class classification v2 of the dose response curve) [5]: -1.1; Efficacy (difference between neutral response and maximum compound response) [5]: -95.949; Max Resp (difference between neutral response and compound response for highest compound concentration) [5]: -99.943; AC50 ([5]; Zika virus, Vero): 4.14e-06 M; AC50 [5, 9]: 4.14e-06 M; Activity against DENV [1]: active against both DENV and ZIKV; SI value DENV (CC50/EC50) [1]: 16; Antiviral activity in human NPC [8]: effectively inhibited ZIKV in NPC cells; Efficacy [8]: -97.35; Max Resp [8]: -80.167; AC50 ([8]; Zika virus, Neuronal progenitor cell): 3.98e-05 M; AC50 ([8]; Zika virus, Neuronal progenitor cell, read-out: Log AC50 (M) (converted)): 3.98e-05 M; AC50 (Vero cells): 4.14 µM; Log AC50 (M) (Vero cells): -5.3827 M
5 | CCC(C)C1NC(=O)C(C(C)=O)=C1O (stereo not shown) [NCGC00168879-02] |  |  |  |  | > 30 | -73.15 | 2.11e-05 | 21.1 | 2.11e-05 | 12 | 3.82 | -1.2 | -63.104 | -99.611 | 2.17e-05 | 2.17e-05 | CC50 (in vitro [3]): > 50 µM; CC-v2 (curve class classification of the dose response curve) [4]: -1.2
6 | COc1c(C(C)C)cc2c(c1O)[C@@]1(C(=O)O)CCCC(C)(C)C1CC2 (stereo partly shown) [NCGC00169945-03] |  |  |  |  | 12.5 |  |  |  |  | 16.1 |  | -2.3 | -78.993 | -100.305 | 1.47e-05 | 1.47e-05 | CC50 at 48 h (in vitro [3]): > 50 µM; AC50 [4, 10]: 1.43e-05 M; AC50 [4, 11]: 1.43e-05 M; IC50 [4, 12]: 14.3 µM; Efficacy [4, 13]: -27.847; IC50 [6, 14]: 20.4 µM
7 | CC1=C[C@H]2O[C@@H]3[C@H](O)C[C@](C)([C@@]2(CO)[C@H](O)C1=O)[C@]31CO1 [NCGC00180572-02, vomitoxin] | Yes | Yes | Yes | Yes |  | -38.561 |  |  |  |  |  | -1.1 | -87.951 | -98.582 |  |  | Log AC50 (M) [4]: -6.2862 M; Max Resp [4]: -28.893; AC50 ([4]; read-out: AC50): 5.17e-07 M; IC50 [4]: 0.52 µM; IC50 [5]: 0.74 µM; CC-v2 (curve class) [8]: -1.1; Efficacy [8]: -97.398; Log AC50 (M) [8]: -5.35 M; Max Resp [8]: -88.056; AC50 ([8]; read-out: AC50): 4.47e-06 M; IC50 ([8]; read-out: IC50 in NPC): 4.4 µM; IC50 ([8]; read-out: NPC (ZIKV Antiviral Assays), IC50): 4.47 µM; IC50 [6]: 0.74 µM; Log AC50 (M) [7]: -7.0741 M; AC50 ([7]; read-out: AC50): 8.43e-08 M
8 | C=C(C)C1Cc2c(ccc3c2OCC(c2ccc(O)cc2O)C3)O1 (stereo not shown) [NCGC00347653-02] |  |  |  |  | > 30 | -16.545 | 7.18e-08 | 0.07 |  | 0.02 | 16.2 | 5 | 33.59 | -97.958 |  |  | CC50 at 48 h (in vitro [3]; Vero cells): > 50 µM; Curve class [4]: -3; AC50 ([4]; Zika virus, Vero, read-out: Log AC50 (converted)): 7.18e-08 M; Emax ([4]; Zika virus, Vero, read-out: Max response): -30.5%
9 | CC1(C)CC[C@]2(C(=O)O)CC[C@]3(C)C(=CCC4[C@@]5(C)C[C@H](O)[C@H](O[C@@H]6OC[C@H](O)[C@H](O)[C@H]6O)[C@@](C)(CO)C5CC[C@]43C)[C@@H]2C1 (stereo partly shown) [NCGC00384893-01] |  |  |  |  |  | -24.539 | 5.44e-06 | 5.44 | 5.44e-06 | 9.81 | > 48 | -1.4 | -59.557 | -100.29 |  |  | CC50 at 48 h (in vitro [3]; Vero cells): > 50 µM
10 | C[C@H]1CC[C@@]2(OC1)O[C@H]1CC3C4CC[C@H]5C[C@@H](O[C@@H]6O[C@H](CO)[C@H](O[C@@H]7O[C@H](CO)[C@@H](O)[C@H](O[C@@H]8OC[C@@H](O)[C@H](O)[C@H]8O)[C@H]7O[C@@H]7O[C@H](CO)[C@@H](O)[C@H](O)[C@H]7O)[C@H](O)[C@H]6O)[C@H](O)C[C@]5(C)C4=CC(=O)[C@]3(C)[C@H]1[C@@H]2C (stereo partly shown) [NCGC00385095-01] |  |  |  |  |  |  |  |  |  | 6.95 |  | -1.4 | -65.601 | -99.657 |  |  | CC50 at 48 h (in vitro [3]): > 50 µM; AC50 [4, 10]: 1.55e-05 M; AC50 [4, 11]: 1.55e-05 M; IC50 [4, 12]: 15.5 µM; Efficacy [4, 13]: -21.201; IC50 [6, 14]: 7.84 µM
11 | CC[C@@H](C)[C@H](NC(=O)C(C)(C)NC(=O)[C@H](CCC(N)=O)NC(=O)C(C)(CC)NC(=O)[C@H](Cc1c[nH]c2ccccc12)NC(C)=O)C(=O)N[C@H](C(=O)NC(C)(C)C(=O)N[C@@H](CC(C)C)C(=O)NC(C)(C)C(=O)N1CCC[C@H]1C(=O)N[C@@H](CCC(N)=O)C(=O)NC(C)(C)C(=O)N1CC(O)C[C@H]1C(=O)NC(C)(CC)C(=O)C1CC[C@@H](C(=O)N[CH]Cc2ccccc2)N1)C(C)O (stereo partly shown) [NCGC00385349-01] (Ac-W[ξIva]Q[Aib][aIle][Thr(3ξ)][Aib]L[Aib]PQ[Aib][X1]-X2) |  |  |  |  |  | -36.779 | 1e-05 | 10 | 1e-05 | 4.52 | > 48 | -1.4 | -52.827 | -100.29 |  |  | CC50 (in vitro [3]): > 50 µM; CC-v2 (curve class classification of the dose response curve) [4]: -3
12 | CCC/C=C/C(=O)O[C@H]1CC(C)(C)CC2[C@@]13[C@H](O)C[C@]1(C)[C@@]2(CCC2[C@@]4(C)CC[C@H](O[C@@H]5O[C@H](C(=O)O)[C@@H](O)[C@H](O[C@@H]6O[C@H](CO)[C@H](O)[C@H](O)[C@H]6O[C@@H]6O[C@@H](C)[C@H](O)[C@@H](O)[C@H]6O[C@@H]6OC[C@](O)(CO)[C@H]6O)[C@H]5O[C@@H]5O[C@H](CO)[C@H](O)[C@H](O)[C@H]5O)C(C)(C)C4CC[C@]21C)O[C@H]3O (stereo partly shown) [NCGC00385970-01] |  |  |  |  |  |  |  |  |  | 2.23 |  | -1.3 | -68.04 | -100.305 | 2.53e-06 | 2.53e-06 | CC50 (in vitro [3]): > 50 µM; AC50 [4, 10]: 3.09e-06 M; AC50 [4, 11]: 3.09e-06 M; IC50 [4, 12]: 3.09 µM; CC-v2 (curve class classification of the dose response curve) ([4]; curve class v2 (Inglese et al. 2006)): -1.2; Efficacy [4, 13]: -40.513; IC50 [6, 14]: 0.5 µM
